Biological target: p38 MAP-kinase (Homo sapiens, UniProt Q16539)
Experiment: Enzymatic assay: inhibition of p38 MAP-kinase (phosphorylation of GST-tagged ATF2, chemoluminescence bead readout)
Type: biochemical
Conditions: inhibitor 1 μM; activated p38 MAP-kinase 1 nM; 4 h preincubation; ATP 100 μM; ATF2 10 nM; read-out: % inhibitory effect at 1 μM
In short: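 Activated human p38 MAP-kinase (1 nM) preincubated 4 h at ambient temperature with compound at 1 μM in HEPES pH 7, MgCl2, DTT, Tween20. Then reacted 1 h with GST-ATF2 (10 nM) and ATP (100 μM). Phospho-ATF2 read by bead chemoluminescence at 520-620 nm, given as % inhibition at 1 μM versus kinase-free background.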

Chain of p38 MAP-kinase (Q16539 whole entry): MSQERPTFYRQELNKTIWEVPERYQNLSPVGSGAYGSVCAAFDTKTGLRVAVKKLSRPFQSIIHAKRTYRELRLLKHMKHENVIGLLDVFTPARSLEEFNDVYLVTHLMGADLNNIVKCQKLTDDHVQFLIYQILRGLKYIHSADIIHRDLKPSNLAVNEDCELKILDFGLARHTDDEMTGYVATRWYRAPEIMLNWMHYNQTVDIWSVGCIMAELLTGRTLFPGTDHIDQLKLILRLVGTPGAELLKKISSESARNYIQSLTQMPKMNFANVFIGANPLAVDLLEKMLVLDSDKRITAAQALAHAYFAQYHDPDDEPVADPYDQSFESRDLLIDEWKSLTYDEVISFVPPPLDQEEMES

| SMILES | inhibition at 1 µM [%] |
| --- | --- |
| COc1c(NC(=O)c2ccc(C)c(Oc3ccnc(N4CCC(N(C)C)CC4)n3)c2)cc(C(C)(C)C)cc1NS(C)(=O)=O [4(8), N-(5-tert-butyl-3-methanesulphonylamino-2-methoxy-phenyl)-3-[2-(4-dimethylamino-piperidin-1-yl)-pyrimidin-4-yloxy]-4-methyl-benzamide] | 98.6 |
| COc1c(NC(=O)c2ccc(C)c(Oc3cc(N4CCNC(=O)C4)ncn3)c2)cc(C(C)(C)C)cc1NS(C)(=O)=O [4(3), N-(5-tert-butyl-3-methanesulphonylamino-2-methoxy-phenyl)-4-methyl-3-[6-(3-oxo-piperazin-1-yl)-pyrimidin-4-yloxy]-benzamide] | 96.3 |
| COc1c(NC(=O)c2ccc(Cl)c(Oc3cc(C(=O)N4CCNCC4)ncn3)c2)cc(C(C)(C)C)cc1NS(C)(=O)=O [5(3), N-(5-tert-butyl-3-methanesulphonylamino-2-methoxy-phenyl)-4-chloro-3-[6-(piperazine-1-carbonyl)-pyrimidin-4-yloxy]-benzamide] | 95 |
| COc1c(C[S+](C)[O-])cc(C(C)(C)C)cc1NC(=O)c1ccc(C)c(Oc2ccnc(CC3CCNCC3)c2)c1 (stereo not shown) [5(42), N-(5-tert-butyl-2-methoxy-3-methylsulphinylmethyl-phenyl)-4-methyl-3-(2-piperidin-4-ylmethyl-pyridin-4-yloxy)-benzamide] | 99.5 |
| COc1c(NC(=O)c2ccc(Cl)c(Oc3ccnc(CN(C)CCN(C)C)c3)c2)cc(C(C)(C)C)cc1NS(C)(=O)=O [8(33), N-(5-tert-butyl-3-methanesulphonylamino-2-methoxy-phenyl)-4-chloro-3-(2-{[(2-dimethylamino-ethyl)-methyl-amino]-methyl}-pyridin-4-yloxy)-benzamide] | 97.1 |
| COc1c(NC(=O)c2ccc(Cl)c(Oc3cc(CN4CCNCC4)ncn3)c2)cc(C(C)(C)C)cc1NS(C)(=O)=O [5(32), N-(5-tert-butyl-3-methanesulphonylamino-2-methoxy-phenyl)-4-chloro-3-(6-piperazin-1-ylmethyl-pyrimidin-4-yloxy)-benzamide] | 97.9 |
| COc1c(NC(=O)c2ccc(C)c(Oc3ccnc(CC4CCNCC4)c3)c2)cc(C(C)(C)C)cc1NS(C)(=O)=O [5(20), N-(5-tert-butyl-3-methanesulphonylamino-2-methoxy-phenyl)-4-methyl-3-(2-piperidin-4-ylmethyl-pyridin-4-yloxy)-benzamide] | 99.5 |
| COc1c(NC(=O)c2cc(C)cc(Oc3ccnc(CN4CCN(C)CC4)n3)c2)cc(C(C)(C)C)cc1NS(C)(=O)=O [8(28), N-(5-tert-butyl-3-methanesulphonylamino-2-methoxy-phenyl)-3-methyl-5-[2-(4-methyl-piperazin-1-ylmethyl)-pyrimidin-4-yloxy]-benzamide] | 81.8 |
| COc1c(NC(=O)c2cc(C)cc(Oc3ccnc(CN4CCNCC4)n3)c2)cc(C(C)(C)C)cc1NS(C)(=O)=O [5(22), N-(5-tert-butyl-3-methanesulphonylamino-2-methoxy-phenyl)-3-methyl-5-(2-piperazin-1-ylmethyl-pyrimidin-4-yloxy)-benzamide] | 85.7 |
| COc1c(NC(=O)c2ccc(C)c(Oc3ccnc(CN4CCCNCC4)c3)c2)cc(C(C)(C)C)cc1S(C)(=O)=O [5(39), N-(5-tert-butyl-3-methanesulphonyl-2-methoxy-phenyl)-3-(2-[1,4]diazepan-1-ylmethyl-pyridin-4-yloxy)-4-methyl-benzamide] | 99.4 |
| COc1c(NC(=O)c2cc(C)cc(Oc3ccncc3)c2)cc(C(C)(C)C)cc1NS(C)(=O)=O [Example 6, N-(5-tert-butyl-3-methanesulphonylamino-2-methoxy-phenyl)-3-methyl-5-(pyridin-4-yloxy)-benzamide] | 94.4 |
| COc1c(NC(=O)c2ccc(C)c(Oc3ccnc(CNC4CCCN(C)C4)n3)c2)cc(C(C)(C)C)cc1NS(C)(=O)=O (stereo not shown) [8(18), N-(5-tert-butyl-3-methanesulphonylamino-2-methoxy-phenyl)-4-methyl-3-{2-[(1-methyl-piperidin-3-ylamino)-methyl]-pyrimidin-4-yloxy}-benzamide] | 98.6 |
| CCCCC(=O)Nc1cc(C(C)(C)C)cc(NC(=O)c2ccc(C)c(Oc3ccnc(CC4CCNCC4)c3)c2)c1OC [11(2), N-(5-tert-butyl-2-methoxy-3-pentanoylamino-phenyl)-4-methyl-3-(2-piperidin-4-ylmethyl-pyridin-4-yloxy)-benzamide] | 95.4 |
| COc1c(NC(=O)c2ccc(C)c(Oc3ccnc(CN4CC[C@H](O)C4)c3)c2)cc(C(C)(C)C)cc1NS(C)(=O)=O [8(13), (S)-N-(5-tert-butyl-3-methanesulphonylamino-2-methoxy-phenyl)-3-[2-(3-hydroxy-pyrrolidin-1-ylmethyl)-pyridin-4-yloxy]-4-methyl-benzamide] | 96.8 |
| COc1c(NC(=O)c2ccc(C)c(Oc3ccnc(CC4CCNCC4)c3)c2)cc(C(C)(C)C)cc1NC(=O)C1CC1 [5(43), N-[5-tert-butyl-3-(cyclopropanecarbonyl-amino)-2-methoxy-phenyl]-4-methyl-3-(2-piperidin-4-ylmethyl-pyridin-4-yloxy)-benzamide] | 98.6 |
| CCCCS(=O)(=O)Nc1cc(C(C)(C)C)cc(NC(=O)c2ccc(C)c(Oc3ccnc(CC4CCNCC4)c3)c2)c1OC [11(1), N-[3-(butan-1-sulphonylamino)-5-tert-butyl-2-methoxy-phenyl]-4-methyl-3-(2-piperidin-4-ylmethyl-pyridin-4-yloxy)-benzamide] | 99.4 |
| COc1c(NC(=O)c2ccc(C)c(Oc3ccnc(CN4CCN(C)CC4)c3)c2)cc(C(C)(C)C)cc1NS(C)(=O)=O [8(10), N-(5-tert-butyl-3-methanesulphonylamino-2-methoxy-phenyl)-4-methyl-3-[2-(4-methyl-piperazin-1-ylmethyl)-pyridin-4-yloxy]-benzamide] | 98.9 |
| COc1c(NC(=O)c2ccc(Cl)c(Oc3cc(CN4CCN(C)CC4)ncn3)c2)cc(C(C)(C)C)cc1NS(C)(=O)=O [12(1), N-(5-tert-butyl-3-methanesulphonylamino-2-methoxy-phenyl)-4-chloro-3-[6-(4-methyl-piperazin-1-ylmethyl)-pyrimidin-4-yloxy]-benzamide] | 99.4 |
| COc1c(CS(C)(=O)=O)cc(C(C)(C)C)cc1NC(=O)c1ccc(C)c(Oc2ccnc(CC3CCNCC3)c2)c1 [5(41), N-(5-tert-butyl-3-methanesulphonylmethyl-2-methoxy-phenyl)-4-methyl-3-(2-piperidin-4-ylmethyl-pyridin-4-yloxy)-benzamide] | 99.6 |
| COc1c(NC(=O)c2ccc(C)c(Oc3ccnc(CN4CCNCC4)c3)c2)cc(C(C)(C)C)cc1NS(C)(=O)=O [5(9), N-(5-tert-butyl-3-methanesulphonylamino-2-methoxy-phenyl)-4-methyl-3-(2-piperazin-1-ylmethyl-pyridin-4-yloxy)-benzamide x trifluoroacetic acid] | 98.5 |
| COc1c(NC(=O)c2ccc(C)c(Oc3ccnc(CNCCN(C)C)n3)c2)cc(C(C)(C)C)cc1NS(C)(=O)=O [8(25), N-(5-tert-butyl-3-methanesulphonylamino-2-methoxy-phenyl)-3-{2-[(2-dimethylamino-ethylamino)-methyl]-pyrimidin-4-yloxy}-4-methyl-benzamide] | 98.6 |
| COc1c(NC(=O)c2ccc(C)c(Oc3ccnc(CC4CCNCC4)c3)c2)cc(C(C)(C)C)cc1NS(=O)(=O)C(C)C [5(50), N-[5-tert-butyl-2-methoxy-3-(propane-2-sulphonylamino)-phenyl]-4-methyl-3-(2-piperidin-4-ylmethyl-pyridin-4-yloxy)-benzamide] | 99.6 |
| COc1c(NC(=O)c2ccc(C)c(Oc3ccnc(CN(C)CCN(C)C)c3)c2)cc(C(C)(C)C)cc1NS(C)(=O)=O [8(26), N-(5-tert-butyl-3-methanesulphonylamino-2-methoxy-phenyl)-3-(2-{[(2-dimethylamino-ethyl)-methyl-amino]-methyl}-pyridin-4-yloxy)-4-methyl-benzamide] | 97.7 |
| COc1c(NC(=O)c2ccc(C)c(Oc3cc[n+]([O-])cc3)c2)cc(C(C)(C)C)cc1NS(C)(=O)=O [Example 1, N-(5-tert-butyl-3-methanesulphonylamino-2-methoxy-phenyl)-4-methyl-3-(1-oxy-pyridin-4-yloxy)-benzamide] | 90.8 |
| COc1c(NC(=O)c2ccc(C)c(Oc3cc(N4CCC(N(C)C)CC4)ncn3)c2)cc(C(C)(C)C)cc1NS(C)(=O)=O [4(11), N-(5-tert-butyl-3-methanesulphonylamino-2-methoxy-phenyl)-3-[6-(4-dimethylamino-piperidin-1-yl)-pyrimidin-4-yloxy]-4-methyl-benzamide] | 99.1 |
| COc1c(NC(=O)c2cc(Cl)c(C)c(Oc3ccnc(N4CCNCC4)n3)c2)cc(C(C)(C)C)cc1NS(C)(=O)=O [5(12), N-(5-tert-butyl-3-methanesulphonylamino-2-methoxy-phenyl)-3-chloro-4-methyl-5-(2-piperazin-1-yl-pyrimidin-4-yloxy)-benzamide] | 98.6 |
| COc1c(NC(=O)c2cc(Cl)c(C)c(Oc3ccnc(CN4CCN(C)CC4)n3)c2)cc(C(C)(C)C)cc1NS(C)(=O)=O [7(5), N-(5-tert-butyl-3-methanesulphonylamino-2-methoxy-phenyl)-3-chloro-4-methyl-5-[2-(4-methyl-piperazin-1-ylmethyl)-pyrimidin-4-yloxy]-benzamide] | 98.5 |
| COc1c(NC(=O)c2ccc(C)c(Oc3ccnc(CC4CCCN(C)CC4)n3)c2)cc(C(C)(C)C)cc1NS(C)(=O)=O (stereo not shown) [12(6), N-(5-tert-butyl-3-methanesulphonylamino-2-methoxy-phenyl)-4-methyl-3-[2-(1-methyl-azepan-4-ylmethyl)-pyrimidin-4-yloxy]-benzamide] | 99.6 |

— patent US8946438B2, “Benzamides, production thereof, and use thereof as medicaments” (Boehringer Ingelheim International GmbH, priority 2008, dated 2015)
